According to ChEMBL document CHEMBL4823294, “Discovery of cinnoline derivatives as potent PI3K inhibitors with antiproliferative activity” (Bioorg Med Chem Lett, 2021):
Active and inactive are the calls of the source. The rule behind the calls is not given here.

Experiments:
[1] = molecular target: T1, Phosphatidylinositol 4,5-bisphosphate 3-kinase catalytic subunit delta isoform (Homo sapiens, UniProt O00329); experiment: Inhibition of PI3Kdelta (unknown origin)
T1 sequence (O00329 whole entry): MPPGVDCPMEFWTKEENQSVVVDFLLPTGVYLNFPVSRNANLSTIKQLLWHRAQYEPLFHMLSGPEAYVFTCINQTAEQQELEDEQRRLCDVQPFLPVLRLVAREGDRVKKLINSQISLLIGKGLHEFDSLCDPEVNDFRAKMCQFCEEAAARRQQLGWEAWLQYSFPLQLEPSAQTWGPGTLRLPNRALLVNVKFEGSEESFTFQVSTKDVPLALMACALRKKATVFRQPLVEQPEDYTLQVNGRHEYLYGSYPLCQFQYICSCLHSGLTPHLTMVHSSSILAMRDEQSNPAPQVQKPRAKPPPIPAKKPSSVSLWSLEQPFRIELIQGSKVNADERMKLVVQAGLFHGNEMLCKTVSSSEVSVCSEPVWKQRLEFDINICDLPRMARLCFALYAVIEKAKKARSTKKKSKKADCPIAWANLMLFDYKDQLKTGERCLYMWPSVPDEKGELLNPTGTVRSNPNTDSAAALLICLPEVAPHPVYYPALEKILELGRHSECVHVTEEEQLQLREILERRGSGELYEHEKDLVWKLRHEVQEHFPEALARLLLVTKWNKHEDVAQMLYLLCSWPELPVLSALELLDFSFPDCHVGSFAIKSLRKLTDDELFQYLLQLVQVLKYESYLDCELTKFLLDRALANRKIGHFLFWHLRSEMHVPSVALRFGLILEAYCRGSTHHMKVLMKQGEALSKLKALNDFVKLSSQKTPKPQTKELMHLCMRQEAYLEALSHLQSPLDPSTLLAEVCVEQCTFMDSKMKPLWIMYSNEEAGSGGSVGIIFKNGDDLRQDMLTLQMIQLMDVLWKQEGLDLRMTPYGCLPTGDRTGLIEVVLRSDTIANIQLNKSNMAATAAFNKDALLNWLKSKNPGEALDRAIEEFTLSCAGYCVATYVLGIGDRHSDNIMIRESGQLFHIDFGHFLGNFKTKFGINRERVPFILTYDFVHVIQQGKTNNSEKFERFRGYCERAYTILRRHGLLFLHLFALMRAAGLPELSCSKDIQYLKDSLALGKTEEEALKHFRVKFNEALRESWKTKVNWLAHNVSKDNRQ

[2] = molecular target: Phosphatidylinositol 4,5-bisphosphate 3-kinase catalytic subunit alpha isoform (Homo sapiens, UniProt P42336); experiment: Inhibition of PI3Kalpha (unknown origin)
[3] = molecular target: Phosphatidylinositol 4,5-bisphosphate 3-kinase catalytic subunit beta isoform (Homo sapiens, UniProt P42338); experiment: Inhibition of PI3Kbeta (unknown origin)
[4] = molecular target: Phosphatidylinositol 4,5-bisphosphate 3-kinase catalytic subunit gamma isoform (Homo sapiens, UniProt P48736); experiment: Inhibition of PI3Kgamma (unknown origin)
U-87 MG [5] = experiment: Antiproliferative activity against human U-87 MG cells; assay type: functional, cell-based, U-87MG ATCC
HeLa = experiment: Antiproliferative activity against human HeLa cells; assay type: functional, cell-based
HepG2 = experiment: Antiproliferative activity against human HepG2 cells; assay type: functional, cell-based
A549 = experiment: Antiproliferative activity against human A549 cells; assay type: functional, cell-based
HL-60 = experiment: Antiproliferative activity against human HL-60 cells; assay type: functional, cell-based
MCF7 = experiment: Antiproliferative activity against human MCF7 cells; assay type: functional, cell-based
U-87 MG [6] = experiment: Inhibition of Akt phosphorylation at Ser473 in human U-87 MG cells at 1 to 5 uM by Western blotting analysis; assay type: cell-based; conditions: dose 1-5 µM
U-87 MG [7] = experiment: Inhibition of Akt expression in human U-87 MG cells at 1 uM by Western blotting analysis; assay type: cell-based
U-87 MG [8] = experiment: Inhibition of Akt expression in human U-87 MG cells at 5 uM by Western blotting analysis; assay type: cell-based

Phosphatidylinositol 4,5-bisphosphate 3-kinase catalytic subunit beta isoform, sequence (P42338 whole entry, canonical isoform): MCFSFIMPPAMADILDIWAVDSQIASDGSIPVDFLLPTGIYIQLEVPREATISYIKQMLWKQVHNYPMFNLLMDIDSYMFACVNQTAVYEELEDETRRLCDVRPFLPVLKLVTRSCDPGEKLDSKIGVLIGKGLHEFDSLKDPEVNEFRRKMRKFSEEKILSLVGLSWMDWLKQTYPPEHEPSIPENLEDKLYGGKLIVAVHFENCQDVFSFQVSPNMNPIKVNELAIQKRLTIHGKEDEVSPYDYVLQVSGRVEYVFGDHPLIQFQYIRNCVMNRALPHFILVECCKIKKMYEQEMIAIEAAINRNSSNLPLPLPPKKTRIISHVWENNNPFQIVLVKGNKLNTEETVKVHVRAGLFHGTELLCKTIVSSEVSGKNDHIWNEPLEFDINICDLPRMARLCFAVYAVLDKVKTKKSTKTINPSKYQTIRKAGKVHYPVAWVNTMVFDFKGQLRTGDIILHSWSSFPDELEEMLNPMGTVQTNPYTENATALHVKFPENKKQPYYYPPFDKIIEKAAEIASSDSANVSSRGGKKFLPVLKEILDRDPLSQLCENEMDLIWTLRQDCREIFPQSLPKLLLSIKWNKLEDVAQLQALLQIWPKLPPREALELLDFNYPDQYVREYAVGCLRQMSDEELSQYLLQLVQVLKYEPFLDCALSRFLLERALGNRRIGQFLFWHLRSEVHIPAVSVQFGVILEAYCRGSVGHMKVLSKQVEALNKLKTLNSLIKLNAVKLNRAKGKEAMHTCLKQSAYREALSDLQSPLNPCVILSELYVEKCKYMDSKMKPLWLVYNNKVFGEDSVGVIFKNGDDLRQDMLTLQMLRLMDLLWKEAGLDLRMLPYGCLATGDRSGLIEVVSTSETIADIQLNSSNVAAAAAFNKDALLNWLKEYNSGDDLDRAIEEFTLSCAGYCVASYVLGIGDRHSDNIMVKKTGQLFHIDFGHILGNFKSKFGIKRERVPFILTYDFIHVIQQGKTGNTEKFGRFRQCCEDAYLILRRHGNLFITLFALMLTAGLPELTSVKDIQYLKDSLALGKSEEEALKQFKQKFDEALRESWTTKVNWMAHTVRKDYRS
Phosphatidylinositol 4,5-bisphosphate 3-kinase catalytic subunit gamma isoform, sequence (P48736 whole entry, canonical isoform): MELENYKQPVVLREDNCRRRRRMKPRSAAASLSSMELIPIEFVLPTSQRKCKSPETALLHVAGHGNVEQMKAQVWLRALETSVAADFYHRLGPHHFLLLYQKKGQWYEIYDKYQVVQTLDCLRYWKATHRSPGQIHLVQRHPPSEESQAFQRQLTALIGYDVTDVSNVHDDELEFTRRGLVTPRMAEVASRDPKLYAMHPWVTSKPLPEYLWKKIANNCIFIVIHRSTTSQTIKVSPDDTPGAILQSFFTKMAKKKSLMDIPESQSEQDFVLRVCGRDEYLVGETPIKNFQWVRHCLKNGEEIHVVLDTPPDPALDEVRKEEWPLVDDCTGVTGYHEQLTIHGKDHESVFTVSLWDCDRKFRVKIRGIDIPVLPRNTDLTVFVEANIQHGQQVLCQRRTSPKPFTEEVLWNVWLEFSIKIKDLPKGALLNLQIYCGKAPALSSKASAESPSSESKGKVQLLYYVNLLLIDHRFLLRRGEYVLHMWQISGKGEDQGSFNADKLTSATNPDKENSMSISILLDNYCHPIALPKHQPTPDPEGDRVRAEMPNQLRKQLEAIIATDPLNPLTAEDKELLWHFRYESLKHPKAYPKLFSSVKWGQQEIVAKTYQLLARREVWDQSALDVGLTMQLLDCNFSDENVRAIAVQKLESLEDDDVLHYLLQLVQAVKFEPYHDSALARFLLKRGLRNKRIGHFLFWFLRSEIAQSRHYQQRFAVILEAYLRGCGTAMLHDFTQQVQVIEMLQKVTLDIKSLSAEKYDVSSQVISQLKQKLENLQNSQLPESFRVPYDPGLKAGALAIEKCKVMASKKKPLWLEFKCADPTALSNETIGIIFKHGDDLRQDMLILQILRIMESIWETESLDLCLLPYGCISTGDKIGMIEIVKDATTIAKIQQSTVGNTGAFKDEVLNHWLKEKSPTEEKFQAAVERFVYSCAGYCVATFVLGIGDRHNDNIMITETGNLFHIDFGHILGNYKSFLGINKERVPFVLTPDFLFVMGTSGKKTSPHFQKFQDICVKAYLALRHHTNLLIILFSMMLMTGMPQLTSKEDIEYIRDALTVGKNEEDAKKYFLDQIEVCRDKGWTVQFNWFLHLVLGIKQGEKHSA
Phosphatidylinositol 4,5-bisphosphate 3-kinase catalytic subunit alpha isoform, sequence (P42336 whole entry, canonical isoform): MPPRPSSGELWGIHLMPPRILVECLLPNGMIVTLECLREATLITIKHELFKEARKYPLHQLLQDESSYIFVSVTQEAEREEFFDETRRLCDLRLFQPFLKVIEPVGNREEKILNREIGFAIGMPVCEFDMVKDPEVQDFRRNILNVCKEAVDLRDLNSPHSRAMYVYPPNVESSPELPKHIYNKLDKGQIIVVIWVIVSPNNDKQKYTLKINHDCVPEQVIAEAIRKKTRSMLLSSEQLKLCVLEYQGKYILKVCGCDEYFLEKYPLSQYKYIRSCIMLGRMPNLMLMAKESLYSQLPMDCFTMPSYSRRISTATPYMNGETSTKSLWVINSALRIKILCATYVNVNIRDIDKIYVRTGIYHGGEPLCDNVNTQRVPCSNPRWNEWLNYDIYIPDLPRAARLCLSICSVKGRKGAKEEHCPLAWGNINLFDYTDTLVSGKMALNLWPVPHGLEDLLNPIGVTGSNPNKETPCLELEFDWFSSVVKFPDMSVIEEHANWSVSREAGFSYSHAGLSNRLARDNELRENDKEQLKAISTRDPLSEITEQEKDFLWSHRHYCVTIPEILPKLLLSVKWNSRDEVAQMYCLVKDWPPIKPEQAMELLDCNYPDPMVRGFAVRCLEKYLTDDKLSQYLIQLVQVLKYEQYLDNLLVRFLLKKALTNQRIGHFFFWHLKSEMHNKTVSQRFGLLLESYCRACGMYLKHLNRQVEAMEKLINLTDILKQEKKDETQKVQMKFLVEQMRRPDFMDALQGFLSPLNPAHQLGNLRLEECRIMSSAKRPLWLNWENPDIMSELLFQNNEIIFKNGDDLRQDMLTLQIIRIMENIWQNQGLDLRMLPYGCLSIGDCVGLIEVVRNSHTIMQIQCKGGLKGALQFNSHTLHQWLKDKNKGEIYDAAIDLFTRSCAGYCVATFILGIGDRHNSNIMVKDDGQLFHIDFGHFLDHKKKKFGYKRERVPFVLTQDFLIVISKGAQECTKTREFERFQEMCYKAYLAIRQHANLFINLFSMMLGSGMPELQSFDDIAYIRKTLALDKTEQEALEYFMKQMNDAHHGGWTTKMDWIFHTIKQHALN

Structure (SMILES)	IC50 [1] [nM]	IC50 [2] [nM]	IC50 [3] [nM]	IC50 [4] [nM]	other results
C[C@H](Nc1cnnc2ccc(-c3cnc(Cl)c(NS(=O)(=O)c4ccccc4)c3)cc12)c1ccccc1	27				
COc1cnnc2ccc(-c3cnc(Cl)c(NS(=O)(=O)c4ccccc4)c3)cc12	1.1				
O=S(=O)(Nc1cc(-c2ccc3nncc(-c4ccncc4)c3c2)cnc1Cl)c1ccccc1	0.36	0.71	1.7	2.25	
O=S(=O)(Nc1cc(-c2ccc3nncc(-c4ccc(N5CCOCC5)nc4)c3c2)cnc1Cl)c1ccccc1	0.28	0.709	1.54	1.89	
C[C@@H](Nc1cnnc2ccc(-c3cnc(Cl)c(NS(=O)(=O)c4ccccc4)c3)cc12)c1ccccc1	5.46				
O=S(=O)(Nc1cc(-c2ccc3nncc(-c4ccc(N5CCOCC5)cc4)c3c2)cnc1Cl)c1ccccc1	0.4	0.711	3.04	2.29	
O=S(=O)(Nc1cc(-c2ccc3nncc(N4CCCC4)c3c2)cnc1Cl)c1ccccc1	0.87	2.64	5.41	5.97	
COc1ncc(-c2ccc3nncc(Nc4ccccc4)c3c2)cc1NS(=O)(=O)c1ccccc1	30.3				
CCOc1cnnc2ccc(-c3cnc(Cl)c(NS(=O)(=O)c4ccccc4)c3)cc12	0.4	1.78	5.61	4.73	
CC(=O)Nc1ccc(Nc2cnnc3ccc(-c4cnc(Cl)c(NS(=O)(=O)c5ccccc5)c4)cc23)cc1	3.3				
O=S(=O)(Nc1cc(-c2ccc3nncc(O)c3c2)cnc1Cl)c1ccccc1	833				
COc1ncc(-c2ccc3nncc(Cl)c3c2)cc1NS(=O)(=O)c1ccccc1	4.42				
O=S(=O)(Nc1cc(-c2ccc3nncc(N4CCCCC4)c3c2)cnc1Cl)c1ccccc1	0.67	1.33	4.6	3.19	
O=S(=O)(Nc1cc(-c2ccc3nncc(Nc4ccccc4)c3c2)cnc1Cl)c1ccccc1	4.47				
O=S(=O)(Nc1cc(-c2ccc3nncc(-n4ccnc4)c3c2)cnc1Cl)c1ccccc1	0.21	1.37	2.39	4.02	IC50 (U-87 MG [5]): 16700 nM; IC50 (HeLa): > 50000 nM; IC50 (HepG2): > 16600 nM; IC50 (A549): > 50000 nM; IC50 (HL-60): 2400 nM; IC50 (MCF7): 39900 nM
O=S(=O)(Nc1cc(-c2ccc3nncc(-c4ccccc4)c3c2)cnc1Cl)c1ccccc1	2.91				
CC1CCN(c2cnnc3ccc(-c4cnc(Cl)c(NS(=O)(=O)c5ccccc5)c4)cc23)CC1	0.32	1.61	5.33	3.66	
O=S(=O)(Nc1cc(-c2ccc3nncc(N4CCNCC4)c3c2)cnc1Cl)c1ccccc1	1.58				IC50 (U-87 MG [5]): 589 nM; IC50 (HeLa): > 16600 nM; IC50 (HepG2): > 50000 nM; IC50 (A549): > 50000 nM; IC50 (HL-60): > 16600 nM; IC50 (MCF7): > 50000 nM
O=S(=O)(Nc1cc(-c2ccc3nncc(Cl)c3c2)cnc1Cl)c1ccccc1	0.55				
Oc1cccc(-c2nc(N3CCOCC3)c3oc4ncccc4c3n2)c1 [PI-103]					IC50 (HeLa): 230 nM; IC50 (HL-60): 65.6 nM
COc1ncc(-c2ccc3nncc(Nc4ccc(NC(C)=O)cc4)c3c2)cc1NS(=O)(=O)c1ccccc1	8.57				
O=S(=O)(Nc1cc(-c2ccc3nncc(N4CCOCC4)c3c2)cnc1Cl)c1ccccc1	0.85	1.55	14.5	4.36	IC50 (U-87 MG [5]): 2020 nM; IC50 (HeLa): 7700 nM; IC50 (HepG2): 18300 nM; IC50 (A549): > 16600 nM; IC50 (HL-60): > 16600 nM; IC50 (MCF7): 13100 nM
COc1ncc(-c2ccc3nncc(N4CCOCC4)c3c2)cc1NS(=O)(=O)c1ccccc1	4.08				
O=S(=O)(Nc1cc(-c2ccc3nnccc3c2)cnc1Cl)c1ccccc1	19.4				
CCCCCCOc1cnnc2ccc(-c3cnc(Cl)c(NS(=O)(=O)c4ccccc4)c3)cc12	215				
O=S(=O)(Nc1cc(-c2ccc3nncc(-c4cnc(N5CCOCC5)nc4)c3c2)cnc1Cl)c1ccccc1	0.65	0.936	4.72	4.42	inhibition (U-87 MG [6]): Active; inhibition (U-87 MG [7]): inactive; inhibition (U-87 MG [8]): Active; IC50 (U-87 MG [5]): 264 nM; IC50 (HeLa): 2040 nM; IC50 (HepG2): > 16600 nM; IC50 (A549): 10100 nM; IC50 (HL-60): 1140 nM; IC50 (MCF7): 31100 nM
COc1ccc(CNc2cnnc3ccc(-c4cnc(Cl)c(NS(=O)(=O)c5ccccc5)c4)cc23)cc1	1.02				
